From patent US9861616B2, “Methods for treating respiratory diseases and formulations therefor” (priority 2013, dated 2018)
≈ marks a conversion by molar mass, not a printed value.

Columns and labels:
P. aeruginosa (PA) = experiment: MIC by microdilution, 36 clinical and laboratory strains with known efflux phenotype; type: cell-based
Experimental: (§1) MICs of 36 clinical and laboratory strains of PA with known efflux phenotype are measured by microdilution in cation-adjusted Muller-Hinton broth (CA-MHB) or in RPMI medium (commonly used in eukaryotic cell culture). Phe-Arg-β-naphthylamide (PaβN, 50 mg/L) and EGTA 5 mM are used to inhibit efflux pumps and alter OM integrity, respectively. P. aeruginosa strain ATCC PAO1 is used as reference. PA12 is a clinical strain overexpressing the 4 main efflux systems (MexAB, MexCD, MexEF, MexXY), PA403 is a laboratory strain deleted in the genes coding for the 4 efflux systems. A series of reference strains or of clinical isolates for which the expression of genes coding for efflux pumps is known is also used for MICs determinations. MICs are measured by microdilution in MH broth or in RPMI medium (used for eukaryotic cells culture) supplemented with 10% of fetal calf serum, or in MH broth supplemented by increasing amounts of serum. EGTA (5 mM) was used as a chelating agent (disrupting outer membrane integrity) and PaβN (50 mg/L) as an unspecific efflux inhibitor.

TNFα release = experiment: LPS-induced TNFα release in PMA-differentiated U937 cells (ELISA); type: cell-based, human; details: at 100 μM
Experimental: Effects of macrolides on lipopolysaccharide (LPS)-induced TNFα release in PMA-differentiated U937 cells. […] LPS-induced TNFα release was evaluated by ELISA. Values represent means of three experiments±SEM. ^##p<0.01 (vs. non-treatment control), *p<0.05, **p<0.01 (vs. treatment with LPS only).
The human monocytic cell line U937 was obtained from the American Type Culture Collection (ATCC, Rockville, Md.). PBMCs from COPD patients were obtained from Brompton hospital and separated by AccuSPIN (Sigma-Aldrich). Cells were cultured in complete growth medium (RPMI 1640) (Sigma-Aldrich) supplemented with 10% fetal bovine serum (FBS) and 1% L-glutamine at 37° C. in a humidified atmosphere with 5% CO2. U937 cells were differentiated into adherent macrophage-like morphology by exposure to PMA (50 ng/mL) for 48 hrs in complete growth medium. Cell viability was assessed microscopically by trypan blue staining. Cell toxicity was determined by MTT assay as needed. This study was approved by the ethics committee of the Royal Brompton Hospitals, and all subjects gave written informed consent.
TNFα and IL-8 concentrations in the supernatant of cell cultures were determined by sandwich ELISA according to the manufacturer's instructions (R&D Systems Europe, Abingdon, UK).
The results were expressed as the mean±SEM. Comparisons of data in two groups were performed using the Student's t test or the Wilcoxon signed rank test. Multiple comparisons were made by one-way ANOVA with post hoc test (Dunnett's) as appropriate. The difference was considered significant at p<0.05. IC50 values (50% inhibitory concentration) for macrolides for production of cytokines or MMP9 were calculated using Prism 4.0 (GraphPad Software Inc., San Diego, Calif.).

P. aeruginosa PA12 = experiment: MIC by microdilution with PaβN or EGTA, clinical isolate overexpressing efflux pumps; type: cell-based; details: Pseudomonas aeruginosa
Experimental: as §1

## CC[C@H]1OC(=O)[C@H](C)C(=O)[C@H](C)[C@@H](O[C@@H]2O[C@H](C)C[C@H](N(C)C)[C@H]2O)[C@](C)(OC)C[C@@H](C)C(=O)[C@H](C)[C@H]2N(CCCCn3cnc(-c4cccnc4)c3)C(=O)O[C@]12C [TEL, telithromycin]
P. aeruginosa (PA); strain 1, efflux AB+, MHB
  MIC: 128 µg/mL (≈ 158 µM)
P. aeruginosa (PA); strain 1, efflux AB+, RPMI
  MIC: 4 µg/mL (≈ 4.93 µM)
P. aeruginosa (PA); strain 2, efflux CD+, MHB
  MIC: 256 µg/mL (≈ 315 µM)
P. aeruginosa (PA); strain 2, efflux CD+, RPMI
  MIC: 16 µg/mL (≈ 19.7 µM)
P. aeruginosa (PA); strain 3, efflux EF+, MHB
  MIC: 64 µg/mL (≈ 78.8 µM)
P. aeruginosa (PA); strain 3, efflux EF+, RPMI
  MIC: 0.25 µg/mL (≈ 0.308 µM)
P. aeruginosa (PA); strain 4, efflux XY+, MHB
  MIC: 128 µg/mL (≈ 158 µM)
P. aeruginosa (PA); strain 4, efflux XY+, RPMI
  MIC: 4 µg/mL (≈ 4.93 µM)
P. aeruginosa (PA); strain 11, efflux AB + CD+, MHB
  MIC: 64 µg/mL
P. aeruginosa (PA); strain 11, efflux AB + CD+, RPMI
  MIC: 1 µg/mL
P. aeruginosa (PA); strain 12, efflux AB + CD + EF + XY+, MHB
  MIC: 128 µg/mL
P. aeruginosa (PA); strain 12, efflux AB + CD + EF + XY+, RPMI
  MIC: 4 µg/mL
P. aeruginosa (PA); strain 16, efflux AB + XY+, MHB
  MIC: 128 µg/mL
P. aeruginosa (PA); strain 16, efflux AB + XY+, RPMI
  MIC: 4 µg/mL
P. aeruginosa (PA); strain 21, efflux AB+, MHB
  MIC: 64 µg/mL (≈ 78.8 µM)
P. aeruginosa (PA); strain 21, efflux AB+, RPMI
  MIC: 2 µg/mL (≈ 2.46 µM)
P. aeruginosa (PA); strain 22, efflux XY+, MHB
  MIC: 128 µg/mL (≈ 158 µM)
P. aeruginosa (PA); strain 22, efflux XY+, RPMI
  MIC: 2 µg/mL (≈ 2.46 µM)
P. aeruginosa (PA); strain 40, efflux EF+, MHB
  MIC: 64 µg/mL (≈ 78.8 µM)
P. aeruginosa (PA); strain 40, efflux EF+, RPMI
  MIC: 2 µg/mL (≈ 2.46 µM)
P. aeruginosa (PA); strain 41, efflux CD+, MHB
  MIC: 256 µg/mL (≈ 315 µM)
P. aeruginosa (PA); strain 41, efflux CD+, RPMI
  MIC: 4 µg/mL (≈ 4.93 µM)
P. aeruginosa (PA); strain 48, efflux CD + EF + XY+, MHB
  MIC: 128 µg/mL
P. aeruginosa (PA); strain 48, efflux CD + EF + XY+, RPMI
  MIC: 8 µg/mL
P. aeruginosa (PA); strain 49, efflux CD + EF + XY+, MHB
  MIC: 128 µg/mL
P. aeruginosa (PA); strain 49, efflux CD + EF + XY+, RPMI
  MIC: 4 µg/mL
P. aeruginosa (PA); strain 63, efflux AB + EF + XY+, MHB
  MIC: 128 µg/mL
P. aeruginosa (PA); strain 63, efflux AB + EF + XY+, RPMI
  MIC: 4 µg/mL
P. aeruginosa (PA); strain 68, efflux AB + XY+, MHB
  MIC: 128 µg/mL
P. aeruginosa (PA); strain 68, efflux AB + XY+, RPMI
  MIC: 4 µg/mL
P. aeruginosa (PA); strain 133, efflux EF + XY+, MHB
  MIC: 128 µg/mL
P. aeruginosa (PA); strain 133, efflux EF + XY+, RPMI
  MIC: 4 µg/mL
P. aeruginosa (PA); strain 156, efflux EF + XY+, MHB
  MIC: 128 µg/mL
P. aeruginosa (PA); strain 156, efflux EF + XY+, RPMI
  MIC: 2 µg/mL
P. aeruginosa (PA); strain 168B, efflux CD + XY+, MHB
  MIC: 256 µg/mL
P. aeruginosa (PA); strain 168B, efflux CD + XY+, RPMI
  MIC: 4 µg/mL
P. aeruginosa (PA); strain 207, efflux AB + EF + XY+, MHB
  MIC: 128 µg/mL
P. aeruginosa (PA); strain 207, efflux AB + EF + XY+, RPMI
  MIC: 4 µg/mL
P. aeruginosa (PA); strain 266B, efflux AB + CD+, MHB
  MIC: 256 µg/mL
P. aeruginosa (PA); strain 266B, efflux AB + CD+, RPMI
  MIC: 4 µg/mL
P. aeruginosa (PA); strain 333A, efflux AB + EF+, MHB
  MIC: 64 µg/mL
P. aeruginosa (PA); strain 333A, efflux AB + EF+, RPMI
  MIC: 2 µg/mL
P. aeruginosa (PA); strain 335, efflux AB + EF+, MHB
  MIC: 128 µg/mL
P. aeruginosa (PA); strain 335, efflux AB + EF+, RPMI
  MIC: 4 µg/mL
P. aeruginosa (PA); strain 391, efflux EF−, MHB
  MIC: 64 µg/mL (≈ 78.8 µM)
P. aeruginosa (PA); strain 391, efflux EF−, RPMI
  MIC: 2 µg/mL (≈ 2.46 µM)
P. aeruginosa (PA); strain 392, efflux CD−, MHB
  MIC: 32 µg/mL (≈ 39.4 µM)
P. aeruginosa (PA); strain 392, efflux CD−, RPMI
  MIC: 0.5 µg/mL (≈ 0.616 µM)
P. aeruginosa (PA); strain 394, efflux XY−, MHB
  MIC: 64 µg/mL (≈ 78.8 µM)
P. aeruginosa (PA); strain 394, efflux XY−, RPMI
  MIC: 1 µg/mL (≈ 1.23 µM)
P. aeruginosa (PA); strain 395, efflux HI−, MHB
  MIC: 32 µg/mL (≈ 39.4 µM)
P. aeruginosa (PA); strain 395, efflux HI−, RPMI
  MIC: 2 µg/mL (≈ 2.46 µM)
P. aeruginosa (PA); strain 396, ompH−, MHB
  MIC: 16 µg/mL (≈ 19.7 µM)
P. aeruginosa (PA); strain 396, ompH−, RPMI
  MIC: 0.25 µg/mL (≈ 0.308 µM)
P. aeruginosa (PA); strain 397, efflux AB−, MHB
  MIC: 8 µg/mL (≈ 9.85 µM)
P. aeruginosa (PA); strain 397, efflux AB−, RPMI
  MIC: 0.03 µg/mL (≈ 0.0369 µM)
P. aeruginosa (PA); strain 398, efflux CD−, MHB
  MIC: 8 µg/mL (≈ 9.85 µM)
P. aeruginosa (PA); strain 398, efflux CD−, RPMI
  MIC: 0.25 µg/mL (≈ 0.308 µM)
P. aeruginosa (PA); strain 399, efflux AB − EF−, MHB
  MIC: 4 µg/mL (≈ 4.93 µM)
P. aeruginosa (PA); strain 399, efflux AB − EF−, RPMI
  MIC: 0.25 µg/mL (≈ 0.308 µM)
P. aeruginosa (PA); strain 400, efflux XY−, MHB
  MIC: 8 µg/mL (≈ 9.85 µM)
P. aeruginosa (PA); strain 400, efflux XY−, RPMI
  MIC: 0.25 µg/mL (≈ 0.308 µM)
P. aeruginosa (PA); strain 401, ompH−, MHB
  MIC: 4 µg/mL (≈ 4.93 µM)
P. aeruginosa (PA); strain 401, ompH−, RPMI
  MIC: 1 µg/mL (≈ 1.23 µM)
P. aeruginosa (PA); strain 403, efflux AB − CD − EF − XY−, MHB
  MIC: 4 µg/mL (≈ 4.93 µM)
P. aeruginosa (PA); strain 403, efflux AB − CD − EF − XY−, RPMI
  MIC: 0.5 µg/mL (≈ 0.616 µM)
P. aeruginosa (PA); strain 405, efflux AB − CD − EF − XY−, MHB
  MIC: 8 µg/mL (≈ 9.85 µM)
P. aeruginosa (PA); strain 405, efflux AB − CD − EF − XY−, RPMI
  MIC: 0.25 µg/mL (≈ 0.308 µM)
P. aeruginosa (PA); strain 434, efflux AB + CD + XY+, MHB
  MIC: 128 µg/mL
P. aeruginosa (PA); strain 434, efflux AB + CD + XY+, RPMI
  MIC: 4 µg/mL
P. aeruginosa (PA); strain PAO1, REFERENCE, MHB
  MIC: 256 µg/mL (≈ 315 µM)
P. aeruginosa (PA); strain PAO1, REFERENCE, RPMI
  MIC: 2 µg/mL (≈ 2.46 µM)
TNFα release; Homo sapiens, U-937, read-out: IC50, LPS-induced TNFα release: NE at 100 μM, U937 cells
  IC50: > 100 µM
TNFα release
  effect on TNFα production: did not inhibit
P. aeruginosa PA12; PA12, PA12, CA-MHB, EGTA 5 mM
  MIC: 32 µg/mL (≈ 39.4 µM)
P. aeruginosa PA12; PA12, PA12, CA-MHB, PaβN 50 mg/L
  MIC: 4 µg/mL (≈ 4.93 µM)
P. aeruginosa PA12; PA12, PA12, CA-MHB, control conditions (CT)
  MIC: 128 µg/mL (≈ 158 µM)
P. aeruginosa PA12; PA12, PA12, RPMI, EGTA 5 mM
  MIC: 1 µg/mL (≈ 1.23 µM)
P. aeruginosa PA12; PA12, PA12, RPMI, PaβN 50 mg/L
  MIC: 4 µg/mL (≈ 4.93 µM)
P. aeruginosa PA12; PA12, PA12, RPMI, control conditions (CT)
  MIC: 4 µg/mL (≈ 4.93 µM)
